Drawing on patent publication US20240383886A1, “Protein Tyrosine Phosphatase Degraders and Methods of Use Thereof” (CALICO LIFE SCIENCES LLC, priority 2019, published 2024), this text covers DC50 for 20 compounds.

Structures are written as SMILES.

Experiment [1] addresses T1, PTPN2 (Homo sapiens, UniProt P17706).
T1 construct: expressed in transfected cells; host or cells: 293T (293T.109 HiBiT-PTPN2 line; parental 293T WT from ATCC)
T1 sequence (P17706 1-415): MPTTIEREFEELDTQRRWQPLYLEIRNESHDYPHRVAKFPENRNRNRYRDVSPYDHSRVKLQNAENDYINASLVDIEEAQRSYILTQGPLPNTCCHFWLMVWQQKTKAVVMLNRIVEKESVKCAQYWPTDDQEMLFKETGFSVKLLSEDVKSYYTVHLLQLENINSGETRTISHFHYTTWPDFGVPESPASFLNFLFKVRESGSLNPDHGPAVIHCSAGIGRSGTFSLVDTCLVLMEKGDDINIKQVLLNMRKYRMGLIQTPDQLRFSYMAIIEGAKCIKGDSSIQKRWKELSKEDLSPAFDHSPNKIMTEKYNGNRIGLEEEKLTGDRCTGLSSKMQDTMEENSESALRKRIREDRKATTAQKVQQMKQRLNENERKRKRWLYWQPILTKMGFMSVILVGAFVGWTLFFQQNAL
Briefly: HiBiT-Degradation 293T.109 PTPN2 (Nano-Glo HiBiT Lytic Assay). The format is cell-based. Particulars: 293T.109 (HiBiT-PTPN2) cells, 24.0 hours. Put shortly:
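Luminescence from a lytic HiBiT read gave PTPN2 levels after 24 h compound exposure at 37° C. Compounds were tested at 11 half-log points from a 10 μM top concentration, in duplicate. The cells were 293T engineered with an N-terminal HiBiT–PTPN2 fusion, plated at 5000 per well, with untreated wells as negative control and no-reagent wells as positive control.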

The test system of experiment [2] is PTPN2. Nature of the experiment: HiBiT-Degradation B16F10.4 PTPN2. The format is cell-based. To be noted: B16F10.4 cells, 24.0 hours.

What is called DC50 is the concentration at which degradation of the target reaches its halfway point. Consider `Cn1c(=O)n(C2CCC(=O)NC2=O)c2ccc(-c3ccc(NCC(C)(C)CCOc4ccc5cc(O)c(N6CC(=O)NS6(=O)=O)c(F)c5c4)cc3)cc21` (stereo not shown) [Example 151, 3-[5-[4-[[4-[[8-fluoro-6-hydroxy-7-(1,1,4-trioxo-1,2,5-thiadiazolidin-2-yl)-2-naphthyl]oxy]-2,2-dimethyl-butyl]amino]phenyl]-3-methyl-2-oxo-benzimidazol-1-yl]piperidine-2,6-dione], for which the DC50 on PTPN2 [1] was 50 to 200 nM; in the experiment with PTPN2 [2] it was not below 1000 nM.
On to `Cn1c(=O)n(C2CCC(=O)NC2=O)c2ccc(C3CCN(CC(=O)N4CC[C@@H](COc5ccc6cc(O)c(N7CC(=O)NS7(=O)=O)c(F)c6c5)C4)CC3(F)F)cc21` (stereo partly drawn) [Example 162, 3-[5-[3,3-difluoro-1-[2-[(3R)-3-[[8-fluoro-6-hydroxy-7-(1,1,4-trioxo-1,2,5-thiadiazolidin-2-yl)-2-naphthyl]oxymethyl]pyrrolidin-1-yl]-2-oxo-ethyl]-4-piperidyl]-3-methyl-2-oxo-benzimidazol-1-yl]piperidine-2,6-dione], for which the DC50 fell in the range of 10 to 50 nM on PTPN2 [1] and 50 to 200 nM with PTPN2 [2].
In the same order, the values of `Cn1c(=O)n(C2CCC(=O)NC2=O)c2ccc(C3CCN(C4CC(C(=O)Nc5ccc6c(F)c(N7CC(=O)NS7(=O)=O)c(O)cc6c5)C4)CC3)cc21` (stereo not shown) [Example 86, 3-[4-[1-(2,6-dioxo-3-piperidyl)-3-methyl-2-oxo-benzimidazol-5-yl]-1-piperidyl]-N-[5-fluoro-7-hydroxy-6-(1,1,4-trioxo-1,2,5-thiadiazolidin-2-yl)-2-naphthyl]cyclobutanecarboxamide] are 10 to 50 nM and 50 to 200 nM.
On the same counts, the results for `Cn1c(=O)n(C2CCC(=O)NC2=O)c2ccc(C3CCN(CC(=O)Nc4ccc5c(F)c(N6CC(=O)NS6(=O)=O)c(O)cc5c4)CC3)cc21` (stereo not shown) [Example 22, N-(6-(1,1-dioxido-4-oxo-1,2,5-thiadiazolidin-2-yl)-5-fluoro-7-hydroxynaphthalen-2-yl)-2-(4-(1-(2,6-dioxopiperidin-3-yl)-3-methyl-2-oxo-2,3-dihydro-1H-benzo[d]imidazol-5-yl)piperidin-1-yl)acetamide] are less than 10 nM and 50 to 200 nM.
In the same order, the values of `Cn1c(=O)n(C2CCC(=O)NC2=O)c2ccc(N3CCC(CCNC(=O)Nc4ccc5c(F)c(N6CC(=O)NS6(=O)=O)c(O)cc5c4)CC3)cc21` (stereo not shown) [Example 181] are 10 to 50 nM and 50 to 200 nM.
On to `Cn1c(=O)n(C2CCC(=O)NC2=O)c2ccc(N3CCC(OCC(=O)Nc4ccc5c(F)c(N6CC(=O)NS6(=O)=O)c(O)cc5c4)CC3)cc21` (stereo not shown) [Example 84, 2-[[1-[1-(2,6-dioxo-3-piperidyl)-3-methyl-2-oxo-benzimidazol-5-yl]-4-piperidyl]oxy]-N-[5-fluoro-7-hydroxy-6-(1,1,4-trioxo-1,2,5-thiadiazolidin-2-yl)-2-naphthyl]acetamide], for which the DC50 on PTPN2 [1] was in the range of 10 to 50 nM; in the experiment with PTPN2 [2] it was 50 to 200 nM.
For the compound `Cn1c(=O)n(C2CCC(=O)NC2=O)c2ccc(C3CCN(C(=O)CN4CC[C@@H](COc5ccc6cc(O)c(N7CC(=O)NS7(=O)=O)c(F)c6c5)C4)CC3)cc21` (stereo partly drawn) [Example 141, 3-[5-[1-[2-[(3R)-3-[[8-fluoro-6-hydroxy-7-(1,1,4-trioxo-1,2,5-thiadiazolidin-2-yl)-2-naphthyl]oxymethyl]pyrrolidin-1-yl]acetyl]-4-piperidyl]-3-methyl-2-oxo-benzimidazol-1-yl]piperidine-2,6-dione], the 50% degradation concentration (DC50) at PTPN2 [1] lay in the range of 10 to 50 nM; with PTPN2 [2], 50 to 200 nM.
Consider `O=C1CCC(N2Cc3c(NCc4cn(CCC(=O)Nc5ccc6c(F)c(N7CC(=O)NS7(=O)=O)c(O)cc6c5)nn4)cccc3C2=O)C(=O)N1` (stereo not shown) [Example 62], for which the DC50 was 200 to 1000 nM at PTPN2 [1] and not below 1000 nM in the experiment on PTPN2 [2].
For the compound `O=C1CCC(N2Cc3c(NCC(=O)N4CCC(C(=O)NCCOc5ccc6cc(O)c(N7CC(=O)NS7(=O)=O)c(F)c6c5)CC4)cccc3C2=O)C(=O)N1` (stereo not shown) [Example 2, N-(2-((7-(1,1-dioxido-4-oxo-1,2,5-thiadiazolidin-2-yl)-8-fluoro-6-hydroxynaphthalen-2-yl)oxy)ethyl)-1-((2-(2,6-dioxopiperidin-3-yl)-1-oxoisoindolin-4-yl)glycyl)piperidine-4-carboxamide], the DC50 on PTPN2 [1] and in the experiment with PTPN2 [2] was 200 to 1000 nM in each case.
In the case of `Cc1cc(CC(=O)Nc2ccc3c(F)c(N4CC(=O)NS4(=O)=O)c(O)cc3c2)ccc1Nc1ccc2c(c1)n(C)c(=O)n2C1CCC(=O)NC1=O` (stereo not shown) [Example 169, N-(6-(1,1-dioxido-4-oxo-1,2,5-thiadiazolidin-2-yl)-5-fluoro-7-hydroxynaphthalen-2-yl)-2-(4-((1-(2,6-dioxopiperidin-3-yl)-3-methyl-2-oxo-2,3-dihydro-1H-benzo[d]imidazol-5-yl)amino)-3-methylphenyl)acetamide], the DC50 at PTPN2 [1] and in the experiment with PTPN2 [2] was 10 to 50 nM each time.
Turning to `O=C1CCC(N2C(=O)c3cccc4c(C5CCN(CC(=O)N6CC(Oc7ccc8cc(O)c(N9CC(=O)NS9(=O)=O)c(F)c8c7)C6)CC5)ccc2c34)C(=O)N1` (stereo not shown) [Example 158, 3-[6-[1-[2-[3-[[8-fluoro-6-hydroxy-7-(1,1,4-trioxo-1,2,5-thiadiazolidin-2-yl)-2-naphthyl]oxy]azetidin-1-yl]-2-oxo-ethyl]-4-piperidyl]-2-oxo-benzo[cd]indol-1-yl]piperidine-2,6-dione], the half-maximal degradation concentration (DC50) on PTPN2 [1] fell in the range of 10 to 50 nM; in the experiment with PTPN2 [2], 50 to 200 nM.
In the same order, the values of `O=C1CCC(N2C(=O)c3ccc(NCc4cn(CCC(=O)Nc5ccc6c(F)c(N7CC(=O)NS7(=O)=O)c(O)cc6c5)nn4)cc3C2=O)C(=O)N1` (stereo not shown) [Example 14, N-(6-(1,1-dioxido-4-oxo-1,2,5-thiadiazolidin-2-yl)-5-fluoro-7-hydroxynaphthalen-2-yl)-3-(4-(((2-(2,6-dioxopiperidin-3-yl)-1,3-dioxoisoindolin-5-yl)amino)methyl)-1H-1,2,3-triazol-1-yl)propanamide] are 200 to 1000 nM and 200 to 1000 nM.
As for `Cn1c(=O)n(C2CCC(=O)NC2=O)c2ccc(C3CCN(CCN4CCC[C@H](COc5ccc6cc(O)c(N7CC(=O)NS7(=O)=O)c(F)c6c5)C4)CC3)cc21` (stereo partly drawn) [Example 147, 3-[5-[1-[2-[(3S)-3-[[8-fluoro-6-hydroxy-7-(1,1,4-trioxo-1,2,5-thiadiazolidin-2-yl)-2-naphthyl]oxymethyl]-1-piperidyl]ethyl]-4-piperidyl]-3-methyl-2-oxo-benzimidazol-1-yl]piperidine-2,6-dione], the DC50 on PTPN2 [1] and in the experiment on PTPN2 [2] was 200 to 1000 nM throughout.
Take `O=C1CCC(N2C(=O)c3cccc(NCc4cn(C5CN(CC(=O)Nc6ccc7c(F)c(N8CC(=O)NS8(=O)=O)c(O)cc7c6)C5)nn4)c3C2=O)C(=O)N1` (stereo not shown) [Example 58]: the DC50 at PTPN2 [1] is 200 to 1000 nM; in the experiment on PTPN2 [2], not below 1000 nM.
As for `O=C1CCC(N2C(=O)c3cccc(NCc4cn(CCC(=O)Nc5ccc6c(F)c(N7CC(=O)NS7(=O)=O)c(O)cc6c5)nn4)c3C2=O)C(=O)N1` (stereo not shown) [Example 68], the DC50 is 200 to 1000 nM at PTPN2 [1] and not below 1000 nM in the experiment on PTPN2 [2].
On the same counts, the results for `Cn1c(=O)n(C2CCC(=O)NC2=O)c2ccc(C3CCN(CC(=O)N4CC=C(c5ccc6cc(O)c(N7CC(=O)NS7(=O)=O)c(F)c6c5)CC4)CC3)cc21` (stereo not shown) [Example 119, 3-[5-[1-[2-[4-[8-fluoro-6-hydroxy-7-(1,1,4-trioxo-1,2,5-thiadiazolidin-2-yl)-2-naphthyl]-3,6-dihydro-2H-pyridin-1-yl]-2-oxo-ethyl]-4-piperidyl]-3-methyl-2-oxo-benzimidazol-1-yl]piperidine-2,6-dione] are 10 to 50 nM and 50 to 200 nM.
On the same counts, the results for `Cn1c(=O)n(C2CCC(=O)NC2=O)c2ccc(Nc3ccc(C(=O)Nc4ccc5c(F)c(N6CC(=O)NS6(=O)=O)c(O)cc5c4)cc3)cc21` (stereo not shown) [Example 104, 4-[[1-(2,6-dioxo-3-piperidyl)-3-methyl-2-oxo-benzimidazol-5-yl]amino]-N-[5-fluoro-7-hydroxy-6-(1,1,4-trioxo-1,2,5-thiadiazolidin-2-yl)-2-naphthyl]benzamide] are 50 to 200 nM and 50 to 200 nM.
In the same order, the values of `Cn1c(=O)n(C2CCC(=O)NC2=O)c2ccc(Nc3ccc(CC(=O)Nc4ccc5c(F)c(N6CC(=O)NS6(=O)=O)c(O)cc5c4)cn3)cc21` (stereo not shown) [Example 168, N-(6-(1,1-dioxido-4-oxo-1,2,5-thiadiazolidin-2-yl)-5-fluoro-7-hydroxynaphthalen-2-yl)-2-(6-((1-(2,6-dioxopiperidin-3-yl)-3-methyl-2-oxo-2,3-dihydro-1H-benzo[d]imidazol-5-yl)amino)pyridin-3-yl)acetamide] are 50 to 200 nM and 10 to 50 nM.
Take `Cn1c(=O)n(C2CCC(=O)NC2=O)c2ccc(C3CCN(CCC(=O)N4CC[C@H](c5ccc6cc(O)c(N7CC(=O)NS7(=O)=O)c(F)c6c5)C4)CC3)cc21` (stereo partly shown) [Example 144]: the DC50 on PTPN2 [1] lay within 10 to 50 nM; with PTPN2 [2], 50 to 200 nM.
On the same counts, the results for `Cn1c(=O)n(C2CCC(=O)NC2=O)c2ccc(Nc3ccc(CNC(=O)c4ccc5c(F)c(N6CC(=O)NS6(=O)=O)c(O)cc5c4)cc3)cc21` (stereo not shown) [Example 148, N-[[4-[[1-(2,6-dioxo-3-piperidyl)-3-methyl-2-oxo-benzimidazol-5-yl]amino]phenyl]methyl]-5-fluoro-7-hydroxy-6-(1,1,4-trioxo-1,2,5-thiadiazolidin-2-yl)naphthalene-2-carboxamide] are 200 to 1000 nM and 200 to 1000 nM.
